Consider five molecules from patent US10576125B2, “Methods for enhancing synaptogenesis and neuritogenesis” (HOUGH EAR INSTITUTE, priority 2016, dated 2020).

Bounds are passed on as bounds.

Assay [1] deals with IHC ribbon synapses in murine SGN-IHC co-culture. Put plainly: Kainic acid excitotoxic trauma in SGN-IHC co-culture. The class given is cell-based. The note with it: for KA-induced shift of pre-synaptic densities from typical to apical distributions: quantitative evaluation. From the text: The previous findings were applied to a murine SGN-IHC co-culture model of excitotoxic trauma. In IHCs of undamaged co-cultures of auditory sensory epithelia (organs of Corti, OC) and associated spiral ganglion neurons (NC), most of the pre-synaptic C-terminal binding protein 2 (CtBP2)-immunoreactive puncta (small red dots) are located in a “typical,” cytoarchitectural position, located along the basal surface of the cell, below or surrounding the IHC nucleus (large red spheres). A marked shift from this typical CtBP2 basal immunoreactivity pattern to a more apical distribution pattern occurred after exposure to the excitotoxic glutamate analog, kainic acid (KA). […] The ability of HPN-07 to restore the structural integrity of ribbon synapses among IHCs following an excitotoxic trauma in this co-culture model is consistent with HPN-07 acting to promote synaptogenesis (i.e., re-innervation) in this context.
FIG. 6 summarizes a quantitative evaluation from a targeted comparison of the number and spatial distribution of ribbons among IHCs from untreated, BDNF-treated, or HPN-07-treated explants following excitotoxic exposure to KA. […] Each data point represents a composite of approximately ten independent measurements.

Assay [2] deals with murine spiral ganglion (SG) tissue explants. Put plainly: Neuritogenesis in murine spiral ganglion explants. It is filed as cell-based, mouse. To be noted: for neurite outgrowth induced by exogenous neurotrophic factor: at 10 μM (so in the source) relative to untreated controls, FIG. 24B, FIG. 26B.
The subject of assay [3] is PC12 cell line. In words: NGF-induced neuritogenesis in PC12 cells. The class given is cell-based. As for the experimental part: This NGF-induced neuritogenic response was apparently saturable at concentrations at and above 10 ng/mL in this context.
FIG. 4 depicts the percentage of PC12 cells with significant neurite outgrowth. The pattern observed here is similar to that observed for treatment-induced increases in average neurite length. Taken together, these evaluations support the interpretation that HPN-07 acts in concert with NGF to promote both de novo neurite outgrowth and changes in the stability or assembly kinetics of neurites in such a manner as to support increases in mean neurite length, both of which are desirable features for re-innervation of IHCs.

In assay [4] the test system is noise-damaged chinchilla. Put plainly: Live animal study in noise-damaged chinchilla. It is filed as in vivo.
In assay [5] the test system is PC12 cell line. The note with it: cited from earlier work.

For “2,4-disulfonyl α-phenyl tertiary butyl nitrone [HPN-07]”, the “neurite densities along the base of IHCs” value in assay [1] (SGN-HC co-cultures following KA) is on record as “increased neurite densities along the base of IHCs”. Moreover, in assay [1] (after KA, compared with BDNF, FIG. 6), the “number of total ribbons among IHCs” value is on record as “greater number of total ribbons”. The “KA-induced apical shift of CtBP2 puncta and loss of PSD-95 co-labeling (IHC ribbon synapse integrity)” value in assay [1] (post-excitotoxic treatment, 10 μM, FIG. 5) is “reversed this pathologic shift”. For the same molecule, in assay [1] (FIG. 6), the “KA-induced shift of pre-synaptic densities from typical to apical distributions” value was “reversed this pathologic change”. Besides, the “potentiation of BDNF-induced neuritogenesis” value in assay [2] (BDNF 10 ng/mL + HPN-07 0.1 μM, 48 hours, serum-free medium, FIG. 2) is reported as “potentiated neuritogenesis”. For the same molecule, in assay [2] (HPN-07 alone vs untreated controls (NC), FIG. 1), the “neurite outgrowth (number and length of neurites) from SG explants” value is given as “induced marked neurite outgrowth”. For the same molecule, the “concentration sufficient to induce a neuritogenic response” value in assay [2] (organotypic cultures of mouse spiral ganglion neurons) stood at 100 µM. In addition, the “number and extent of nerve fibers in addition to BDNF” value in assay [2] (with BDNF 10 ng/ml, FIG. 24) was “greatly increased the number and extent of nerve fibers”. Moreover, the NT-3 induced neuritogenesis result in assay [2] (with NT-3 10 ng/ml, FIG. 26) is reported as “enhanced”. Further, in assay [3] (1 μM HPN-07 + 10 ng/mL NGF, 6 days, FIG. 3), the mean neurite lengths entry is “markedly surpassed the maximum lengths achieved in the saturable NGF dose-escalation series”. Also, the “NGF-mediated neuritogenesis (mean neurite length)” value in assay [3] (1 μM HPN-07 + 1 and 5 ng/mL NGF, 6 days, FIG. 3) is “enhances”. Further, the “percentage of PC12 cells bearing neurites” value in assay [3] (HPN-07 + escalating doses of NGF, FIG. 4) is “significantly enhanced NGF-induced neuritogenesis”. Further, in assay [3] (low concentrations, no NGF), the “neurite length, HPN-07 alone” value is “did not increase neurite length”. In addition, the functional recovery entry in assay [4] (long after the duration of treatment) is listed as “progressive degree of functional recovery”. Besides, in assay [4] (relative to untreated controls), the “inner hair cell neurite populations” value is reported as “significantly greater inner hair cell neurite populations”.

For the molecule NGF: Nerve growth factor, in assay [3] (NGF alone), the “concentrations at which the NGF-induced neuritogenic response is saturable” value is on record as at least 10 ng/mL and the neurite elongation entry was “induced neurite elongation in a dose-dependent manner”.

As for `CC(C)(C)[N+]([O-])=Cc1ccccc1` [PBN, alpha-phenyl N-tertiary-butyl nitrone], the “concentration required for inducing neuritogenesis in PC12 cells” value in assay [5] was 10 mM.

B1: BDNF: Brain-derived neurotrophic factor, the canonical cochlear neuritogenic growth factor (protein, UniProt P23560 19-247, looked up)
Neurotrophic factor BDNF …: APMKEANIRGQGGLAYPGVRTHGTLESVNGPKAGSRGLTSLADTFEHVIEELLDEDQKVRPNEENNKDADLYTSRVMLSSQVPLEPPLLFLLEEYKNYLDAANMSMRVRRHSDPARRGELSVCDSISEWVTAADKKTAVDMSGGTVTVLEKVPVSKGQLKQYFYETKCNPMGYTKEGCRGIDKRHWNSQCRTTQSYVRALTMDSKKRIGWRFIRIDTSCVCTLTIKRGR
Regarding B1, the “KA-induced shift of pre-synaptic densities from typical to apical distributions” value in assay [1] (FIG. 6) is “reversed this pathologic change”. Moreover, the “neurite outgrowth induced by exogenous neurotrophic factor” value in assay [2] was “induced significant neurite outgrowth”.

B2: NT-3: inherent neurotrophic factor in the inner ear, essential for development and survival of cochlear spiral ganglions (protein, UniProt P20783 139-257, looked up)
Neurotrophin-3: YAEHKSHRGEYSVCDSESLWVTDKSSAIDIRGHQVTVLGEIKTGNSPVKQYFYETRCKEARPVKNGCRGIDDKHWNSQCKTSQTYVRALTSENNKLVGWRWIRIDTSCVCALSRKIGRT
Take B2: the “neurite outgrowth induced by exogenous neurotrophic factor” value in assay [2] was “induced significant neurite outgrowth”.
